Assay [1] deals with mouse colorectal cancer cell line CT26. Kind of assay: Anti-tumor effect in allogenic transplantation model of mouse colorectal cancer cell line CT26. The following applies: female Balb/C mice, CT26 subcutaneous; 10 mg/kg per single dose, once on day-4, twice per day day-5 to day-25. The assay is classed as in vivo. The protocol:
The anti-tumor effect of the compound of the present invention was evaluated in an allogenic transplantation model of CT26 that was a mouse colorectal cancer cell line. CT26 was cultured in a RPMI-1640 medium supplemented with 10 vol % of heat-inactivated fetal bovine serum (FBS), 100 units/mL of penicillin and 100 μg/mL of streptomycin in a CO2 incubator. On the day of transplantation, a culture supernatant was removed, CT26 was washed with a phosphate buffered saline (also abbreviated as “PBS”, hereinafter) and was then collected. The collected CT26 was suspended in PBS and was used as cells for transplantation. 300,000 cells for the transplantation were transplanted subcutaneously into female Balb/C mice (Charles River Laboratories Japan) on the right back. Four days after the transplantation, the mice were divided into two groups, i.e., a medium group and a compound A group, each including 10 cases. […] With respect to a tumor volume (mm^3), a shorter diameter and a longer diameter of a tumor were measured with an electronic caliper, and the tumor volume was calculated in accordance with mathematical formula 1 shown below. […]

In assay [2] the target is T1, human EP2 receptor (Homo sapiens, UniProt P43116).
T1 construct: expressed in transfected cells; host or cells: CHO cells
T1 sequence (P43116 whole entry): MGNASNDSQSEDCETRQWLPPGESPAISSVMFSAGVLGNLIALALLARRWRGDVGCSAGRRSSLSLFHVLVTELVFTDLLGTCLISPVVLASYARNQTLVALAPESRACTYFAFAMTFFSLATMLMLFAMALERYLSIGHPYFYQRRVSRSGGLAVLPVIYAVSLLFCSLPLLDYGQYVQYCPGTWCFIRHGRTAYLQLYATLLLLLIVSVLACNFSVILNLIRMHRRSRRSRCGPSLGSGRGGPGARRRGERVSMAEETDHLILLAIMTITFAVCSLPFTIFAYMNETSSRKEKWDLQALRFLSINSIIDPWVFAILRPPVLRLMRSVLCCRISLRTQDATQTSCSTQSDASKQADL
Description: Experiment of measuring EP2 antagonistic activity using cells expressing prostanoid receptor (cAMP). Type of assay: cell-based. The following applies: CHO cells expressing human EP2 receptor; PGE2 10 nmol/L; cAMP quantified after 1 hour at room temperature; read-out: EP2_IC50. On the procedure:
CHO cells on each of which a human EP2 receptor had been expressed were prepared in accordance with the method by Nishigaki et al, (FEBS Letters, vol. 364, pp. 339-341, 1995) and were then cryopreserved in CELLBANKER2 (Nippon Zenyaku Kogyo Co., Ltd.) at a concentration of 1.5×10^7 cells/mL/vial. The CHO cells thus prepared were used in the experiment. The cells were thawed, and were then suspended in an assay medium (D-PBS containing 1 mmol/L IBMX, 2 μmol/L Diclofenac) at a concentration of 5×10^5 cells/mL. PGE2 alone having a final concentration of 10 nmol/L or a solution (10 μL) containing the PGE2 and a test compound was added to the cell suspension (10 μL) to initiate the reaction. After the reaction was performed at room temperature for 1 hour, the amount of cAMP in the cells was quantified in accordance with the method described in cAMP Gs Dynamic kit (CISBIO).
The antagonistic activity (IC50 value) of a test compound was calculated as a percentage of suppression of the reaction at 10 nM, which was a concentration at which a submaximal cAMP production activity was observed when PGE2 alone was employed. In this manner, an IC50 value was determined.

Where only a bound is given, the exact number is not on record here.

As for `Cc1cc(OCCc2ccccc2)cc(C)c1C(=O)Nc1cc([C@H]2C[C@H]2C(=O)O)ccc1C(F)(F)F` [Example 18, (1R,2S)-2-[3-{[2,6-Dimethyl-4-(2-phenylethoxy)benzoyl]amino}-4-(trifluoromethyl)phenyl]cyclopropanecarboxylic acid], the “tumor volumes on day-25 of the transplantation compared with medium-administered group” value in assay [1] is recorded as “significantly smaller”. For the same compound, in assay [2], the IC50 was found to be 0.9 nM.
For the compound `CC(C)c1c(OCc2ccccc2)cccc1C(=O)Nc1cc([C@H]2C[C@H]2C(=O)O)ccc1C(F)(F)F` [Example 29-1, (1R,2S)-2-[3-{[3-(Benzyloxy)-2-isopropylbenzoyl]amino}-4-(trifluoromethyl)phenyl]cyclopropanecarboxylic acid], the IC50 in assay [2] was 11 nM.
With `CC(C)c1nn(CCCc2ccccc2)cc1C(=O)Nc1cc([C@H]2C[C@H]2C(=O)O)ccc1C(F)(F)F` [Example 31-1, (1R,2S)-2-[3-({[3-Isopropyl-1-(3-phenylpropyl)-1H-pyrazol-4-yl]carbonyl}amino)-4-(trifluoromethyl)phenyl]cyclopropanecarboxylic acid], in assay [2], the IC50 is 8.9 nM.
For the compound `CC(C)c1c(C(=O)Nc2cc([C@H]3C[C@H]3C(=O)O)ccc2C(F)(F)F)cnn1CCCc1ccccc1` [Example 31-2, (1R,2S)-2-[3-({[5-Isopropyl-1-(3-phenylpropyl)-1H-pyrazol-4-yl]carbonyl}amino)-4-(trifluoromethyl)phenyl]cyclopropanecarboxylic acid], the IC50 in assay [2] stood at 1.3 nM.
Take `Cc1cc(OCCc2ccccc2)cc(C)c1C(=S)Nc1cc([C@H]2C[C@H]2C(=O)O)ccc1C(F)(F)F` [Example 32, (1R,2S)-2-[3-({[2,6-Dimethyl-4-(2-phenylethoxy)phenyl]carbonothioyl}amino)-4-(trifluoromethyl)phenyl]cyclopropanecarboxylic acid]: the IC50 in assay [2] came to 13 nM.
With `CCC(C)c1c(C(=O)Nc2cc([C@H]3C[C@H]3C(=O)O)ccc2C(F)(F)F)ccn1CCCc1ccccc1` (stereo partly drawn) [Example 34, (1R,2S)-2-[3-({[2-sec-Butyl-1-(3-phenylpropyl)-1H-pyrrol-3-yl]carbonyl}amino)-4-(trifluoromethyl)phenyl]cyclopropanecarboxylic acid], the IC50 in assay [2] is < 0.3 nM.
